Test results: patent US10988523B2, “Modified lipidated Relaxin B chain peptides and their therapeutic use” (Sanofi, priority 2018, dated 2021)
Read-outs that look alike come from different tables or passages of the source.

Tests used:
[1] = biological target: T1, RXFP1 (Homo sapiens, UniProt Q9HBX9); test: OVCAR5 cAMP assay (HTRF), RXFP1 agonist activity; assay type: cell-based; conditions: for EC50: OVCAR5 cells expressing endogenous RXFP1, cAMP readout, 30 min, 1 mM IBMX, read-out: EC50 cAMP assay in OVCAR 5 cells; for Emax: OVCAR-5, maximal cAMP relative to H2-relaxin maximal cAMP x 100, read-out: Emax cAMP assay in OVCAR 5 cells
T1 construct: OVCAR5 cells expressing endogenous RXFP1; endogenous in cells; host or cells: OVCAR5 cells
T1 sequence (Q9HBX9 1-757): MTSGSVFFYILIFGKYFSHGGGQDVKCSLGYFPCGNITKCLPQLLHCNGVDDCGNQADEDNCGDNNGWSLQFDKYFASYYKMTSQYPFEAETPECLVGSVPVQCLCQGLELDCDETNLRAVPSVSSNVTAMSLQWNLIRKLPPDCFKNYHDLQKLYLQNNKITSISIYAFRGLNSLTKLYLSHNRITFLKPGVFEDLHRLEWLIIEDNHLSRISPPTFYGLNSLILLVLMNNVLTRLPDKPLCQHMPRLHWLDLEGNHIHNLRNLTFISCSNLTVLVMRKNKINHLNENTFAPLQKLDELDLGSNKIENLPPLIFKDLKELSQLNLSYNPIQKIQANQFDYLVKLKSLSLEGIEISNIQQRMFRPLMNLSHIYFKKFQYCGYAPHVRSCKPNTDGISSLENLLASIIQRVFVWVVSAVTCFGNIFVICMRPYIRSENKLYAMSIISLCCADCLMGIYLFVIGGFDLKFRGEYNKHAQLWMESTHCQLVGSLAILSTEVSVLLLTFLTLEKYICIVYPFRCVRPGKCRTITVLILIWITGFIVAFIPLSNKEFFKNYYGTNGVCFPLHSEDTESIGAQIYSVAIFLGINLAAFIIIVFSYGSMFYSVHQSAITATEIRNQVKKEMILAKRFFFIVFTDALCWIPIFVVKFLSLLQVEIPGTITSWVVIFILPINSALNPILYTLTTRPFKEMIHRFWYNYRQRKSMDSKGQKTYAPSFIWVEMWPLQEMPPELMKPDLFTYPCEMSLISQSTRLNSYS
Procedure, shortened: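 cAMP accumulation readout: after 1 mM IBMX for 40 min, endogenous-RXFP1 OVCAR5 cells got rising peptide concentrations without FCS, 30 min, 37° C, then lysis with HTRF cAMP reagents. Nonlinear regression gave EC50; Emax expressed relative to H2-relaxin maximum, same occasion.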

[2] = Stability testing of peptides in rat plasma or blood; assay type: in vitro ADME; conditions: 37° C.; for Rat plasma stability % remaining T = 0: rat plasma or blood, T = 0 (reference), 5 μM; for remaining at 1 h, 5 µM / remaining at 4 h, 5 µM: rat plasma; for remaining at 1 h, 5 µM: read-out: Rat plasma stability % remaining 1 h; for remaining at 4 h, 5 µM: read-out: Rat plasma stability % remaining 4 h
Procedure: (§1) Prior to the testing of stability in plasma (or blood) of a peptide batch, its purity (HPLC-UV) was determined.
(§2) Rat and Human plasma: anti-coagulant sodium or lithium heparin.
(§3) Rat and Human blood: anti-coagulant sodium or lithium heparin. • Stock solution: • 100 μM solution of study compound in 50 mM Phosphate buffer pH 7.4. • 950 μL plasma (or blood) was pre-incubated for 5 min at 37° C. 50 μL of compound stock solution was added. Final compound concentration=5 μM. Vortex and transfer 1504, plasma (or blood) into an Eppendorf for each time point. The time points […] were carried out in duplicate for each species.
(§4) After incubation 150 μL, plasma (or blood) was extracted with 600 μL, Acetonitrile containing with 1% TFA. Then, vortexed and centrifuged 10 min at 14600 rpm. 200 μL supernatant was dried under N2. The sample was reconstituted in 200 μL of H2O/CH3CN 98/2+0.1% FA+50 ng/ml Labetalol and analyzed using the analytical system used in solubility and stability studies.
(§5) For determination of the amount of the remaining peptide, the peak areas of the target compound at t0 and each time point […] were compared, resulting in “% remaining peptide”, following the equation: % remaining peptide=[(peak area peptide time)×100]/peak area peptide t0. The stability is expressed as “% remaining peptide”.

[3] = Solubility testing of peptides in buffer; assay type: physicochemical; conditions: target solubility 2.0 mg/ml
Procedure: Prior to the testing of solubility of a peptide batch, its purity (HPLC-UV) was determined.
Acetate Buffer 50 mM pH4.5: 0.75 g […], 3H2O (Sigma 57545)+0.35 ml CH3CO2H 100% solution dissolved in Millipore water, adjusted to pH with diluted (1:1) CH3CO2H and diluted to 250 ml with Millipore water.
In a 4 ml Ependorph vial, an accurately weighed sample of compound was diluted in study media to obtain target concentration of 2, 6 or 10 mg/ml of pure compound. The sample vials were shacked (rock 'roll shaker) for ˜19 h. 3004, Aliquots ( ) were filtered through a Millipore “Solvinert” plate (0.45 μm—PTFE hydrophilic).
pH was measured with a micro electrode
Waters Acquity UPLC System with DAD detector
Column: Waters Peptide Column CSH C18 (130 Å; 1.7 μm; 50*2.1 mm)
Column temperature: 60° C.
Full loop (about 5 μL)—overfill factor 5
Weak et Strong wash: H2O/ACN (75/25; V/V); Seal wash: H2O/IsOH (95/5; V/V). Mobile phase:
Solvent A: 0.05% TFA in H2O; Solvent B: 0.035% TFA in CH3CN
Gradient: from 0 to 12 min B=2% to 60%, from 12 to 14 min B=60% to 100%. Column washing 100% B 1 min, column equilibration 2% B 2.5 min.
UV detector: wavelength: 220 nm.

[4] = Stability testing of peptides in human plasma or blood; assay type: in vitro ADME; conditions: 37° C.; for Human Plasma stability % remaining T = 0: human plasma or blood, T = 0 (reference), 5 μM; for remaining at 1 h, 5 µM / remaining at 4 h, 5 µM: human plasma; for remaining at 1 h, 5 µM: read-out: Human Plasma stability % remaining 1 h; for remaining at 4 h, 5 µM: read-out: Human Plasma stability % remaining 4 h
Procedure: as §1, §2, §3, §4, §5

[5] = acetate buffer 50 mM pH 4.5, read-out: Solubility Acetate buffer pH 4.5
[6] = phosphate buffer 50 mM pH 7.4, read-out: Solubility phosphate buffer pH 7.4

| EC50 [1] | Emax [1] | Rat plasma stability % remaining T = 0 [2] | remaining at 1 h, 5 µM [2] | remaining at 4 h, 5 µM [2] | solubility [3, 5] | solubility [3, 6] | Human Plasma stability % remaining T = 0 [4] | remaining at 1 h, 5 µM [4] | remaining at 4 h, 5 µM [4] | Solubility Acetate buffer pH 4.5 ([3]; acetate buffer 50 mM pH 4.5) | Solubility phosphate buffer pH 7.4 ([3]; phosphate buffer 50 mM pH 7.4) | Substance |
| --- | --- | --- | --- | --- | --- | --- | --- | --- | --- | --- | --- | --- |
| 206 nM | 84% | 100% | 23% | 14% | 2300 µg/mL | 177 µg/mL | 100% | 41% | 31% |  |  | Ac-VIKLSGRELVRAQIAISGMSTWSKKKK-NH2 [KKKK(AcB7-29 C11.23S), reference compound] |
|  | 70% | 100% | 16% | 2% | 1540 µg/mL | < 1 µg/mL | 100% | 67% | 18% |  |  | Ac-VIKLSGRELVRAQIAISGMSTWSKRSL-NH2 [AcB7-33 C11.23S, reference compound] |
| 1640 nM | 90% | 100% | 15% | 2% |  |  | 100% | 18% | 3% | 1.9 mg/ml | 0.014 mg/ml | H-VIKLSGRELVRAQIAISGMSTWSKRSL-NH2 [B7-33 C11.23S, reference compound] |
